Entries after “also recorded” stand apart in the source; their conditions may differ.
Tests used:
tumor cells (C6 glioma) = assay: In vivo fluorescent imaging using C6 tumor model mice (rat glioma C6 cells transplanted subcutaneously in nude mice); set-up: species or system mouse
Procedure: C6 cells were prepared according to an ordinary method so that the cell number was 2×10^7 cells/mL.
C6 cells were seeded on a 10 cm petri dish, allowed to stand still in a CO2 incubator, and cultured at 37° C. The culture medium was exchanged once every two days.
1 g/L glucose-containing Dulbecco's modified Eagle's Medium (DMEM) (Nacalai No. 08456-65), to which Fetal Bovine Serum (Equitech-Bio SFBM) was added so that the final concentration was 10% and penicillin-streptomycin (Nacalai No. 26253-84) was added so that the final concentration was 1%, was used.
5 to 6-week old athymic nude mice (BALB/cAJcl-nu/nu) were transplanted with 50 μL of a cell suspension adjusted to 2×10^7 cells/mL subcutaneously around the root of right hind paw, under isoflurane anesthesia. The transplanted tumor cells were observed until growing to about 200 to 300 mm^3, and used in vivo fluorescent imaging.
C6 tumor model mice were allowed to stand still in an in vivo fluorescence imaging apparatus IVIS (registered trademark) Kinetics (Caliper Life sciences) under isoflurane anesthesia and autofluorescence of the mouse skin was measured, and subsequently, 400 nmol (100 μL) of 2-NBDLG or 2-NBDG dissolved in physiological saline was administered from the tail vein over a period of 30 seconds, and measurement of the fluorescence imaging was started again from one minute after starting administration. The in vivo fluorescence imaging was measured at an excitation wavelength of 465 nm using a GFP filter (transmittable fluorescence wavelength: 515-575 nm). The measurement was conducted for 45 minutes, and images were taken every one minute during the initial 20 minute and every 5 minutes from 20 to 45 minutes, obtaining 25 images in total. The accumulated values (fluorescence value) of 2-NBDLG and 2-NBDG in the interested area were obtained by subtracting the autofluorescence images from the 25 images taken after administration of 2-NBDLG or 2-NBDG.
A vial of 0.5 mg of 2-NBDLG or 2-NBDG was dissolved in 400 μL of physiological saline directly before the experiment, to prepare a solution having a final concentration of 400 nmol/100 μL.

[1] = system: mouse insulinoma cells (MIN6); assay: Confocal imaging of MIN6 tumor cell cluster using 2-NBDLG+2-TRLG mixture; assay type: cell-based
Procedure: A 0.1 mg 2-TRLG vial was transferred into a desiccator and the temperature thereof was returned to room temperature. […] Specifically, 6.5 mL of the above-described 2-NBDLG solution was prepared beforehand and stirred vigorously. Then, 40 μL of DMSO was added to a 2-TRLG vial container using a RAININ chip (Mettler Toledo) in which adhesion to the tip wall is ignorable, and stirred with the vial container by a mixer to cause dissolution thereof. 2-TRLG adhered to the wall was collected to the bottom by spinning down, the whole quantity thereof was removed by [sequence] using the same chip, and dissolved in the 2-NBDLG solution being stirred. 2-TRLG slightly remaining in the 2-TRLG vial container was recovered using 25 μL of DMSO in the same manner as described above, and further dissolved in the 2-NBDLG solution. By the above-described method, a mixed solution of 100 μM 2-NBDLG+20 μM 2-TRLG (final concentration) was prepared with good reproducibility.
A 100 μM 2-NBDLG+20 μM 2-TRLG mixture was administered for 3 minutes in a condition completely covering the whole tumor cell cluster. The state of the solution covering the whole cell cluster was confirmed each time without fail by fluorescence images in the green and red wavelength ranges during administration and acquisition of a transmitted light image. By stopping application of the fluorescent glucose mixture and switching simultaneously to the solution to a no fluorescent glucose-containing HEPES solution, the background fluorescence became ignorable level in 1 minute.
By the method according to Example 3, image acquisition before administration of the mixture was started just after starting an experiment, and from then on, the fluorescence images in the blue, green and red wavelength ranges and a transmitted light image were acquired every 2 minutes until completion of the experiment. Regarding laser used, DAPI used for nuclear staining was excited by using 405 nm diode laser (AOTF 20%) and 2-NBDLG and 2-TRLG were excited by using 488 nm argon laser (output: 50%, AOTF 28%). The scan speed was 400 Hz.
For fluorescence detection, three fluorescence detectors were used as described below. For detection of blue fluorescence by DAPI, a photomultiplier detector (PMT)1 was used in the wavelength detection range of 415 to 500 nm (detection sensitivity: 750 V), for detection of green fluorescence by 2-NBDLG, PMT2 was used in the wavelength detection range of 500 to 580 nm (detection sensitivity: 670 V), and for detection of red fluorescence, PMT3 was used in the wavelength detection range of 580 to 740 nm (detection sensitivity: 670 V). Here, most of the fluorescence of 2-TRLG is present in the wavelength longer than 580 nm and only a small fluorescent component is present in the wavelength less than 580 nm, thus, the fluorescence intensity in the range of 500 to 580 nm of PMT2 is barely influenced by 2-TRLG. Therefore, when the amount of detection of 2-TRLG in cells increases, its effect emerges mainly as an increase in the fluorescence intensity in the range of 580 to 740 nm of PMT3. On the other hand, although 2-NBDLG has the maximal fluorescence intensity around 540 to 550 nm, it has fluorescence in the range of 580 to 740 nm as well. Therefore, when the amount of detection of 2-NBDLG within the cell increases, the fluorescence intensity in the range of 580 to 740 nm detected by PMT3 also increases in addition to an increase in the fluorescence intensity in the range of 500 to 580 nm detected by PMT2. […]

[2] = system: mouse insulinoma cells (MIN6); assay: Uptake into MIN6 cells with or without inhibitors, fluorescence microplate reader (Flex Station); assay type: cell-based; settings: 200 μM, 5 minutes
Procedure: A difference in the uptake of 2-NBDLG (200 μM) and 2-NBDG (200 μM) into mouse insulinoma cells (MIN6) each applied for 5 minutes was analyzed quantitatively by a fluorescence microplate reader Flex Station (manufactured by Molecular Devices Corporation) in the condition whether or not various inhibitors are present. The well used for measurement was a 96-well clear bottomed well plate μ CLEAR-PLATE (Greiner bio-one, BLACK, 96 well, #655090) having longitudinally […] to 12 twelve columns, and MIN6 cell suspension prepared at a proportion of 6×10^5 cells/mL was seeded uniformly into wells from line B to line G at the third column and the fifth column each in an amount of 15 μL. For medium exchange, the half quantity was exchanged every two days in 0 to 4 DIV (days in vitro), and from 5 DIV or later, exchanged every day, and on days 10 to 13 (10 to 13 DIV), the cells were subjected to an experiment. Line A and line H were used as a control for checking correct washout, without seeding cells. In the fourth column, cells were not present, and wells in this column were used as a blank containing only Krebs Ringer buffer solution (KRB, containing 0.1 mM gap junction inhibitor carbenoxolone and 5.6 mM glucose). Evaluation was done in a way that 2-NBDLG or 2-NBDG was charged in each tube of a 8-strip PCR tube, and sucked using a 8-channel pipette and dropped simultaneously into wells. In this way, administration to wells for 2-NBDLG and to wells for 2-NBDG can be done simultaneously, making reliable evaluation possible. As described above, cells are present in 12 wells in the third and the fifth two columns, and these were divide into 4 groups each having 3 wells according to a difference either 2-NBDLG or 2-NBDG and whether an inhibitor is present or absent. Specifically, when checking the effect by the presence or absence of a GLUT inhibitor Cytochalasin B (10 μM) on the uptake of 2-NBDLG (200 μM) and 2-NBDG (200 μM), first, in wells, which are planned to be measured in the presence of Cytochalasin B, Cytochalasin B was added 5 minutes prior to the administration of the fluorescently labeled glucose derivative. Before administration of a fluorescently labeled glucose derivative, the autofluorescence was measured in each well. The measurement was done with Flex Station in Well Scan Mode and in the Bottom Read position at Ex 470 nm, Em 540 nm, Cut off 495 nm, Averaging 3, and Photomultiplier sensitivity: high. In Well Scan Mode of the fluorescence microplate reader Flex Station, one well was divided into nine observation areas and these are measured independently. The presence of approximately 5000 cells in each of 9-divided areas was separately confirmed by Z section measurement of a realtime deconvolution microscope. 2-NBDG and 2-NBDLG were administered with or without Cytochalasin B (37° C., 5 minutes), and after cessation of administration, an operation of adding 250 μL of a KRB solution containing no fluorescently labeled glucose into 50 μL of a solution in a well was repeated 7 times while measuring with a stopwatch, thereby performing washout until the fluorescence intensities of wells in line A and line H set as a control group became equal to the fluorescence intensity of the blank well containing no cell. This process required 7 minutes, and even if cells having broken plasma membrane condition are brought into contact with 2-NBDG and 2-NBDLG, and even if these compounds are once taken up into the cell, these compounds are already eliminated out of the cell and are washed away in measurement, therefore, contribution to an increase in the fluorescence intensity in the whole observation area was judged to be in an ignorable level. This was supported by a separate pharmacological inhibition experiment in which the increase in the fluorescence intensity nearly disappears in the presence of an inhibitor. The above-described method was carried out similarly in the case of other inhibitors. […]

[3] = 100 μM 2-NBDLG+20 μM 2-TRLG mixture for 3 minutes

## O=[N+]([O-])c1ccc(NC2C(O)OC(CO)[C@H](O)C2O)c2nonc12 (stereo partly drawn) [2-NBDLG, 2-[N-(7-Nitrobenz-2-oxa-1,3-diazol-4-yl)amino]-2-deoxy-L-glucose]
Tumor cells (C6 glioma); 400 nmol i.v., temporal change over 45 minutes, same result in 6 examples
  fluorescence values at tumor-transplanted part (Tumor) versus normal tissue (BG), FIG. 3: fluorescence values at the tumor-transplanted part (blue rhombus, Tumor) are consistently larger than at normal tissue
Tumor cells (C6 glioma); 400 nmol/100 μL from the tail vein
  time from which accumulations at the tumor cell-transplanted part were recognized: around 5 minutes after administration
Tumor cells (C6 glioma); 400 nmol/100 μL from the tail vein over 30 seconds, non-fasted nude mice, fluorescence images every one minute
  accumulation at the tumor-transplanted part: intense accumulations
Tumor cells (C6 glioma); 400 nmol/100 μL from the tail vein, non-fasted mice
  contrast between tumor-transplanted part and normal tissue (adipocyte-rich dorsal part near neck): excellent contrast; also recorded: high contrast
Tumor cells (C6 glioma); 400 nmol/100 μL from the tail vein, normal tissue (fat tissue on the back, between back bones, muscle)
  uptake/accumulation in normal tissue: scarcely taken up
[1]; [3]
  fluorescence at the central region of the cell cluster, 4 minutes after cessation of administration: weaken to a considerable extent
  uptake into cells just outside of the central region of the cell cluster: taking up almost no
[1]; 100 μM 2-NBDLG+20 μM 2-TRLG mixture for 3 minutes, green channel (2-NBDLG), red channel (2-TRLG)
  uptake at the central region of the cell cluster, 2 minutes after cessation of administration: Intense uptake
[1]; 100 μM 2-NBDLG+20 μM 2-TRLG mixture, after cessation of administration
  time of elimination from spherical cells on the outermost periphery of the cell cluster: ≤ 2 min
[1]; 100 μM 2-NBDLG+20 μM 2-TRLG mixture, between 2 and 4 minutes after cessation
  time of elimination from cells at the central region of the tumor cell cluster: ≤ 2 min
[2]; 37° C., Cytochalasin B (10 µM, CB)
  effect of GLUT inhibitor Cytochalasin B on uptake into MIN6 cells: did not show a significant decrease (N.S.)
[2]; 37° C., Na(−) buffer, choline substituted
  uptake into MIN6 cells in buffer containing Na+ versus no Na+ ion (SGLT): no significant difference
[2]; Phloretin (150 μM, PHT)
  effect of Phloretin on uptake into MIN6 cells: underwent inhibition of the uptake

— patent publication US20140154717A1, “METHOD FOR DETECTING CANCER CELL USING FLUORESCENTLY LABELED L-GLUCOSE DERIVATIVE, AND CANCER CELL-IMAGING AGENT COMPRISING FLUORESCENTLY LABELED L-GLUCOSE DERIVATIVE” (priority 2011, published 2014)
